Tested on: Plasmodium falciparum Dd2 asexual blood stage parasites
Assay: microbe, parasite or virus in culture
Set-up: species or system Plasmodium falciparum Dd2 in human erythrocytes; single determination (one 11-point concentration-response curve)
Conditions: Plasmodium falciparum, DD2, Erythrocyte, 72 h; read-out: AC50

| SMILES | AC50 |
| --- | --- |
| COc1ccccc1CNC(=O)[C@@H](C)C1CC[C@@]2(C)CC[C@H](NC(=O)c3cncnc3)[C@@H](C)[C@@H]2[C@H]1O (stereo partly shown) [NCGC00395379-01] | 2.37 µM |
| COc1ccc(Nc2cc(C)c3cc(NC(=O)Cc4c(F)cccc4Cl)ccc3n2)cc1 [NCGC00124312-01] | 5.31 µM |
| COc1cc2nc(NCc3ccccc3Cl)n3nc(-c4cccnc4)nc3c2cc1OC [NCGC00112532-01] | 2.11 µM |
| CCOC(=O)N1CCc2c(sc3c2c(=O)n(CCc2ccccc2)c(=O)n3Cc2c(F)cccc2Cl)C1 [NCGC00111977-01] | 2.66 µM |
| CC(C)(Oc1nn(CC2CC2)c2ccc(CN3CCCC3)cc12)C(N)=O [NCGC00419502-01] | 13.7 µM |
| CCOC(=O)c1nnn(-c2nonc2N)c1-c1ccc(Br)cc1 [MLS000727795-01] | 2.66 µM |
| Cc1cc(OC(C)C(=O)NCCc2c[nH]c3ccccc23)c2c(C)cc(=O)oc2c1 (stereo not shown) [MLS001158613-01] | 2.66 µM |
| Cn1c(=O)[nH]c2nnc(-c3ccc(Cl)c(Cl)c3)nc2c1=O [MLS000768805-01] | 8.41 µM |
| Cc1cc(N2CCC(C)CC2)nc(-n2nc(C)cc2C)n1 [MLS000109839-01] | 2.99 µM |
| Cc1ccc(N(C)C2=NC(=O)CS2)cc1Cl [MLS001164579-01] | 9.44 µM |
| Cc1cccc(Cn2nnc3c(O)nc(C4CCCN(C(=O)c5ccc(C(C)(C)C)cc5)C4)nc32)c1 (stereo not shown) [NCGC00116091-01] | 2.66 µM |
| CC(C)C[C@@H](NC(=O)[C@@H](O)[C@H](N)Cc1ccccc1)C(=O)O [NCGC00093685-01] | 2.99 µM |
| CN(Cc1ccccc1)Cc1ccccc1OCC(O)CN1CCCCC1 (stereo not shown) [NCGC00426411-01] | 1.5 µM |
| COc1ccc(CC(=O)NCc2ccccn2)cc1OC [MLS000039135-01] | 7.5 µM |
| COc1cc2c(cc1OCc1ccccc1)NC(=O)C21CCN(c2ccccn2)CC1 [NCGC00416940-01] | 15.3 µM |
| CC1CC(C)CN(C(=O)c2ccc3ccccc3c2)C1 (stereo not shown) [MLS001161774-01] | 2.37 µM |
| CC(C)[C@@H]1CN([S+](=O)([O-])c2ccc(Cl)cc2Cl)C[C@H]1N(C)C [NCGC00445159-01] | 6.68 µM |
| CCOc1ccc(CN(CCc2ccc3c(c2)OCO3)Cc2cc(OC)ccc2O)cc1 [NCGC00101752-01] | 0.668 µM |
| COc1cccc([S+](=O)([O-])N2CCC3(CC2)CC(N(C)Cc2ccccc2)CCO3)c1 (stereo not shown) [NCGC00453781-01] | 8.41 µM |
| CCC(C(=O)NCCn1ccn2nc(-c3ccc(OC)cc3)cc2c1=O)c1ccccc1 (stereo not shown) [NCGC00456905-01] | 15 µM |
| CCNc1nc(NCc2ccccc2)nc(Oc2ccc(=O)[nH]n2)n1 [MLS000097254-01] | 2.11 µM |
| Cc1ccc(CNC(=O)c2ccc(N3CCC4(CC3)CC(c3cccc(Br)c3)=NO4)c(NC(=O)c3ccco3)c2)cc1 [MLS001074407-01] | 8.41 µM |
| O=C1CC2(CCN([S+](=O)([O-])c3cccc(C(F)(F)F)c3)CC2)Oc2ccccc2N1c1ccccc1 [NCGC00478390-01] | 6.68 µM |
| COc1cc(C2CC(=O)Nc3cc4c(cc32)OCCO4)cc(Br)c1OC (stereo not shown) [NCGC00107055-01] | 5.31 µM |
| O=C1CC(c2ccccc2)N(C(=O)CNC(=O)c2n[nH]c3c2CCc2ccccc2-3)CCCCCCN1 (stereo not shown) [NCGC00467449-01] | 2.99 µM |
| Cc1ccnc2nc(C(=O)Nc3cc(Cl)ccc3N3CCOCC3)nn12 [MLS000567033-01] | 4.73 µM |
| CN1CCN(C(=O)c2ccc3c(c2)N(Cc2c(F)cccc2Cl)C(=O)c2ccccc2S3)CC1 [NCGC00108178-01] | 0.0596 µM |

| SMILES | AC50 |
| --- | --- |
| Cc1ccc(C)c(NC(=O)CN(C)C(=O)c2cc3ccccc3o2)c1 [MLS000770584-01] | 13.3 µM |
| CCCOC(=O)c1ccc(-c2c(C)noc2-c2ccc(OC)cc2O)o1 [MLS000097856-01] | 1.88 µM |
| Cc1ccc([S+](=O)([O-])c2nc([S+](=O)([O-])c3ccccc3)sc2NCCCOC(C)C)cc1 [NCGC00116818-01] | 0.596 µM |
| COc1ccc2c(c1)c(CN1CCCCCCN(C)C(=O)[C@@H]3CCC[C@@H]31)cn2C [NCGC00465190-01] | 15 µM |
| COc1ccc(-c2cc(N3CCN(C(=O)c4c[nH]c5ccccc45)CC3)[nH]n2)cc1 [NCGC00436860-01] | 15 µM |
| N#Cc1cc(C#N)c(N2CCN(c3cccc(Cl)n3)CC2)nc1N [MLS000325470-01] | 3.35 µM |
| O=C(CCC[C@H]1NC[C@@H]2C[C@H]1CN(Cc1ccccc1)C2)NCCCN1CCCc2ccccc21 [NCGC00428635-01] | 10.6 µM |
| CCOC(=O)c1c([S+](=O)([O-])N2CCCC(C(=O)N3CCN(c4cc(C)ccc4C)CC3)C2)c(C)n(C)c1C (stereo not shown) [NCGC00138145-01] | 1.5 µM |
| O=S(=O)(c1ccc(F)cc1)N1CCN(C(S)=NC2CC2)CC1 [MLS002161026-01] | 3.35 µM |
| CC(C)[S+](=O)([O-])N1CCC(N2CC(OCC3CC3)C23CCCCC3)CC1 (stereo not shown) [NCGC00463417-01] | 15 µM |
| Cc1ccccc1NC(=O)c1cc2c(-c3ccccc3)nn(-c3ccccc3)c2s1 [NCGC00102094-01] | 11.9 µM |
| CCC(=O)C1=C(c2cccc([N+](=O)[O-])c2)N(C(=O)CC)n2c(nnc2C2CCCCC2)S1 [NCGC00137266-01] | 1.88 µM |
| COc1ccc(CN2CCC3(C2)C(NC2CCCCC2)=NC(=O)N3c2cccnc2)cc1 (stereo not shown) [NCGC00374261-01] | 2.11 µM |
| CN1CCN(c2ccc(NC(=O)c3ccc(-c4cccc([N+](=O)[O-])c4)o3)cc2)CC1 [MLS000663772-01] | 4.73 µM |
| O=C(CC[S+](=O)([O-])c1cc(Br)cc2c1N(C(=O)C1CC1)CC2)N1CCN(c2cccc(Cl)c2)CC1 [NCGC00107190-01] | 13.3 µM |
| Cc1ccc2nc(Cl)c3cc(C(=O)NCCCN4CCC(C)CC4)sc3c2c1 [NCGC00110841-01] | 6.68 µM |
| CCCOc1ccc(Oc2nc(-c3ccncc3)nc3ccccc23)cc1 [MLS000769540-01] | 4.22 µM |
| CCN(CC)CCNC(O)=C1C(=O)c2cccc3c2N(CCC3)C1=O [MLS000078957-01] | 10.6 µM |
| COc1cc2c(cc1OC)C(COc1ccc3c(C)cc(=O)oc3c1)N(C(=O)c1ccccc1C)CC2 (stereo not shown) [NCGC00104945-01] | 15 µM |
| CCOC(=O)c1sc(NC(=O)c2nc3ncccn3n2)c(C(=O)OC(C)C)c1C [NCGC00141358-01] | 2.66 µM |
| O=c1c([N+](=O)[O-])cccn1Cc1ccc(F)cc1Cl [MLS000728802-01] | 4.73 µM |
| CCOC(=O)C1(Cc2cccc(Cl)c2)CCCNC1 (stereo not shown) [NCGC00430131-01] | 8.41 µM |
| Cc1ccc([S+](=O)([O-])N2CCC(OC3CCN(Cc4ccccc4)CC3)CC2)cc1C [NCGC00444948-01] | 15 µM |
| COc1ccc(-c2cc(-c3cccc(OC)c3OC)cn3cncc23)cc1 [NCGC00412191-01] | 6.85 µM |
| Fc1ccc(-c2ccc3ncc(Nc4ccnc(N5CCOCC5)c4)n3n2)cc1 [NCGC00412558-01] | 1.72 µM |
| Cn1cccc1CN1CCCC2(Cc3ccccc3CNC2=O)C1 (stereo not shown) [NCGC00377565-01] | 13.2 µM |
| CN(C)C(C(=O)N1CCC(F)(F)CC1)c1ccccc1F (stereo not shown) [NCGC00444487-01] | 15 µM |

| SMILES | AC50 |
| --- | --- |
| CCN(CC)CC(O)COc1ccccc1C(=O)CCc1ccccc1 (stereo not shown) [MLS000107538-01] | 1.5 µM |
| C#C[C@H]1C[N@@]2CC[C@H]1C[C@@H]2CNCc1cccc(Cl)c1 [NCGC00395254-01] | 4.85 µM |
| CC(C)c1ccc(CC(=O)N2CCCc3ncc(C(=O)NCCc4c[nH]c5ccccc45)cc32)cc1 [NCGC00420032-01] | 15 µM |
| COc1ccccc1CN1CCOCC2(C1)CN([S+](=O)([O-])c1ccccc1)C2 [NCGC00419002-01] | 12.2 µM |
| COc1ccc([S+](=O)([O-])NC[C@H]2C[C@@H]3CC[N@]2C[C@@H]3CN(C)Cc2ccccc2)cc1 [NCGC00400093-01] | 4.73 µM |
| CC(C)CN(CCNC(=O)c1cc(-c2ccc(Cl)s2)nc2ccccc12)CC(C)C [NCGC00104475-01] | 7.5 µM |
| Cc1ccc(NC(=O)c2c(C)oc3ccc(O)c(CN4CCCCCC4)c23)c(C)c1 [NCGC00115658-01] | 4.73 µM |
| CCN(CC)CCNC(=O)C12CCCC=C1N(Cc1ccccc1)C(=O)CC2 (stereo not shown) [NCGC00472142-01] | 8.41 µM |
| O=C(Nc1cc(Cl)ccc1O)c1cc2nc(-c3ccc4c(c3)OCO4)cc(C(F)(F)F)n2n1 [NCGC00164969-01] | 2.66 µM |
| CCCN1CCC(NCc2cn(C)nc2-c2ccc(Oc3ccccc3)cc2)CC1 [MLS000732385-01] | 4.73 µM |
| Cc1[nH]c2ccc(OC(F)(F)F)cc2c1CCNCc1cccc([N+](=O)[O-])c1 [MLS001198398-01] | 4.73 µM |
| CCOc1ccc(NC(=O)c2nnn3cc(C)[nH]c(=O)c23)cc1 [NCGC00454245-01] | 10.6 µM |
| O=C(c1cccc(Cl)c1)N1CCC(c2nc(O)c3nnn(Cc4ccc(F)cc4F)c3n2)CC1 [NCGC00116055-01] | 5.96 µM |
| COc1ccc(NC(=O)c2sc3nc4c(c(-c5ccc(OC)cc5)c3c2N)C(=O)CC(C)(C)C4)cc1 [NCGC00100714-01] | 1.88 µM |
| Cc1ccc(S(=O)(=O)Nc2ccc(-c3cn4ccc(C)cc4n3)cc2)cc1 [MLS000579534-01] | 6.68 µM |
| COc1cccc(NC(=O)Cn2cccc2-c2nc(-c3ccc(OC)c(F)c3)no2)c1 [NCGC00445448-01] | 6.68 µM |
| O=C(c1ccccc1OCC1CCCN(Cc2ccncc2F)C1)N1CCCCC1 (stereo not shown) [NCGC00427046-01] | 10.6 µM |
| CCCCn1cc([S+](=O)([O-])c2ccc(Cl)cc2)c(=O)c2cc(F)c(N3CCCCC3)cc21 [NCGC00123723-01] | 15 µM |
| Cc1ccc(C)c(-n2c(-c3ccc(Br)cc3)csc2=NC(=O)c2ccccc2F)c1 [MLS000766129-01] | 4.73 µM |
| Cc1cccc(OCC(=O)NCC2(N3CCN(C)CC3)CCCCC2)c1C [NCGC00118605-01] | 6.68 µM |
| SC(=NCc1ccccc1)N1CCn2cccc2C1c1cccnc1 (stereo not shown) [MLS000683224-01] | 9.44 µM |
| CO/N=C1\CN(c2nc3c(cc2F)c(=O)c(C(=O)O)cn3C2CC2)CC1CN (stereo not shown) [NCGC00095182-01] | 9.44 µM |
| CC(=O)N1CCc2cc(Br)cc(S(=O)(=O)N3CCCCCC3)c21 [MLS000086258-01] | 5.31 µM |
| CN1CCN(Cc2nnc(C(=O)N3CCC[C@@H]3c3ccc(Br)cc3)n2Cc2ccccc2)CC1 [NCGC00415715-01] | 7.5 µM |
| Cc1ccc(C)c(N2CCN(C(=O)c3cc([S+](=O)([O-])N4CCCCCC4)cn3C)CC2)c1 [NCGC00132413-01] | 10.6 µM |

Reference: publication PMC7822874, “Chemoprotective antimalarials identified through quantitative high-throughput screening of Plasmodium blood and liver stage parasites” (Scientific Reports, 2021)
